Measurements taken from US11865110B2, “Thrombin inhibitors, formulations, and uses thereof” (VERSEON INTERNATIONAL CORPORATION, priority 2018, dated 2024).

How the values were obtained:
Rat pharmacokinetics = format: in vivo; conditions: Sprague-Dawley, plasma, SD rats; for C0: C0 by extrapolation
Procedure: Rat pharmacokinetic data were generated as follows. Compounds were administered intravenously (IV) via tail vein or orally (PO) via gastric gavage to Sprague-Dawley rats fitted with surgically implanted jugular vein catheters (JVC) with nominal weights between 250 and 275 g. Nominal doses were 1 mg/kg and 5 mg/kg for IV and PO, respectively. The doses for IV administration were formulated by dissolving the test compound in a mixture (v/v/v) of 5% N,N-dimethylacetamide (DMA), 15% Kolliphor® (Solutol®) HS15, and 80% sterile water at a dose concentration of 0.25 mg/mL. The doses for PO administration were formulated either as Option A or Option B. Option A was formulated by dissolving the test compound in a mixture (v/v) of 90% Kolliphor® (Solutol®) HS15 and 10% pure ethanol at a dose concentration of 0.25 mg/mL. Option B was formulated by dissolving the test compound in a mixture (v/v) of 20% Labrasol® and 80% Phosphate buffer at pH 6.8.
Animals were housed in standard holding cages with food and water available ad libitum except for animals used for PO dosing which were fasted overnight prior to dosing. One to three rats were used for each experiment. Samples were collected manually via its JVC just before the dosing, as well as at the time points of 5 min, 15 min, 30 min, 60 min, 120 min, 4 h, 8 h, 12 h, and 24 h. Alternatively, samples were collected automatically by transferring the animal to a BASi Culex® automated blood-sampling system for the duration of the experiment. Plasma was obtained by centrifuge and stored frozen until analyzed by LC-MS/MS using an AB Sciex™ QTrap® 5500 coupled to a Shimadzu Nexera X2 fitted with a Luna® Omega 1.6 μm Polar C18 100 Å, 50×2.1 mm, acquired from Phenomenex®. Samples were compared against a standard curve of the test compound at concentrations ranging from 10,000 to 0.3 ng/mL.
(§1) Pharmacokinetic parameters were calculated from mean concentration values using a non-compartmental analysis as described below and as apparent to those of ordinary skill in the art. Concentration at time zero (C0) for the IV was established by the extrapolation of log linear regression using equal weighting on the first three sample time points. Area under the curve (AUC) values were calculated using linear trapezoidal integration.

Mouse pharmacokinetics = format: in vivo; conditions: plasma, male CD-1 mice; for C0: C0 by extrapolation
Procedure: Mouse pharmacokinetic data were generated as follows. Compounds were administered intravenously (IV) as a single dose via tail vein or orally (PO) as a single dose via gastric gavage to male CD-1 mice with weights between 18 and 25 g. Nominal doses were 1 mg/kg and 5 mg/kg for IV and PO administration, respectively. The doses for IV were formulated by dissolving the test compound in a mixture (v/v/v) of 5% N,N-dimethylacetamide (DMA), 15% Kolliphor® (Solutol®) HS15, and 80% sterile water at a dose concentration of 0.25 mg/mL. Doses for PO were formulated by dissolving the test compound in a mixture (v/v) of 90% Kolliphor® (Solutol®) HS15 and 10% pure ethanol at a dose concentration of 0.25 mg/mL.
Animals were housed in standard holding cages with food and water available ad libitum except for those used for PO dosing, which were fasted overnight prior to dosing. Prior to dosing and at each time point following dosing (5 min (IV only), 15 min, 30 min, 60 min, 120 min, 4 h, 8 h, 12 h, and 24 h), two animals were sacrificed and blood samples were taken in triplicate via cardiac puncture. Plasma was obtained by centrifuge and stored frozen until analyzed by LC-MS/MS using an AB Sciex™ QTrap® 5500 coupled to a Shimadzu Nexera X2 fitted with a Luna® Omega 1.6 μm Polar C18 100 Å, 50×2.1 mm, acquired from Phenomenex®. Samples were compared against a standard curve of the test compound at concentrations ranging from 10,000 to 0.3 ng/mL.
as §1, with “parameters are” for “parameters were”, “of log-linear” for “of log linear”

[1] = tested on: platelet activation (mouse thrombin); experiment: Inhibition of platelet activation in CD-1 mouse plasma; format: cell-based; conditions: CD-1 mouse platelet-rich plasma, Chrono-Lume luminescence, read-out: EC50 towards inhibited platelet activation
Procedure: Assays for inhibition of platelet activation in mouse plasma were performed by the following procedure. Test compounds and positive controls were first diluted in a three-fold series in DMSO to generate a range of concentrations for each from 1500 to 0.08 μM. 2 μL of each sample solution was then placed in corresponding wells of a 96-well plate (the “assay plate”) containing 88 μL of a platelet-rich plasma (PRP) mix described below. 10 μL of a 10 nM solution of mouse thrombin in assay buffer (described below) was then added to each well of the assay plate. The plate was then shaken on a Lab-Line Instruments Inc. titer plate shaker for 2 minutes at 300 RPM. 10 uL of Chrono-Lume® solution was then added to each well. The plate was again shaken for 3 minutes at 300 RPM. Luminescence data were recorded from a plate reader. Each sample was measured in duplicate and against blanks with and without mouse thrombin to record background and maximum signal measurements. The IC50 data were automatically calculated from the measured luminescence counts by means appreciated by one of skill in the art.
The various solutions involved in this procedure are described as follows. Assay buffer was made by combining 7.5 mL of 5 M NaCl with 1.19 g of HEPES powder, 0.5 mL of 1 M MgCl2, 1.5 mL of 1 M KCl and 235 mL of water in a 500 mL flask. The solution's pH was adjusted to 7.4 using 10 N NaOH, and then brought up to a final volume of 250 mL using water. A 20 mM solution of H-Gly-Pro-Arg-Pro-OH (GPRP) in this assay buffer was made from commercially obtained powder. The PRP Mix was made by first centrifuging down 600 μL of whole CD-1 mouse blood in 1.8 mL sodium citrate vacutainers at 100×g for 10 minutes at room temperature in an Eppendorf 5810 R centrifuge. The plasma layer was then extracted along with as much as possible of the buffy coat into storage vials. Extractions from multiple animals were often pooled together. To make the final mix, 2.3 mL of these plasma extractions was combined with 7.2 mL of the above assay buffer and 0.5 mL of the 20 mM GPRP solution. […]

[2] = PO 5 mg/kg, Formulation B (20% Labrasol, 80% phosphate buffer pH 6.8)
[3] = PO 5 mg/kg, Formulation B (20% Labrasol, 80% phosphate buffer pH 6.8), read-out: PO AUC
[4] = IV single dose 1 mg/kg, read-out: IV AUC
[5] = PO 5 mg/kg, Formulation A (90% Kolliphor HS15, 10% ethanol)
[6] = PO 5 mg/kg, Formulation A (90% Kolliphor HS15, 10% ethanol), read-out: PO AUC
[7] = PO single dose 5 mg/kg, read-out: PO AUC

Cmax (Rat pharmacokinetics; [2])	AUC (Rat pharmacokinetics; [3])	C0 (Mouse pharmacokinetics; IV single dose 1 mg/kg)	AUC (Mouse pharmacokinetics; [4])	EC50 [1]	C0 (Rat pharmacokinetics; IV 1 mg/kg)	AUC (Rat pharmacokinetics; IV 1 mg/kg, read-out: IV AUC)	Cmax (Rat pharmacokinetics; [5])	AUC (Rat pharmacokinetics; [6])	Cmax (Mouse pharmacokinetics; PO single dose 5 mg/kg)	AUC (Mouse pharmacokinetics; [7])	SMILES
230 ng/mL	120 ng·h/mL	1700 ng/mL	530 ng·h/mL								CC(C)(C)C(=O)n1nc(-c2cccn(CCC(N)=O)c2=O)cc1NCc1ccc(Cl)s1 [Compound 8, 3-[3-(5-{[(5-chlorothiophen-2-yl)methyl]amino}-1-(2,2-dimethylpropanoyl)-1H-pyrazol-3-yl)-2-oxo-1,2-dihydropyridin-1-yl]propanamide]
		6800 ng/mL	8200 ng·h/mL	15 µM	6500 ng/mL	3000 ng·h/mL	240 ng/mL	2200 ng·h/mL	3600 ng/mL	31000 ng·h/mL	CC(C)(C)C(=O)n1nc(-c2cccn(CCC(=O)O)c2=O)cc1NCc1ccc(Cl)s1 [Compound 1, 3-[3-(5-{[(5-chlorothiophen-2-yl)methyl]amino}-1-(2,2-dimethylpropanoyl)-1H-pyrazol-3-yl)-2-oxo-1,2-dihydropyridin-1-yl]propanoic acid]
930 ng/mL	2100 ng·h/mL				5400 ng/mL	3300 ng·h/mL					CC(C)(C)C(=O)n1nc(-c2cccn(CCCC(=O)O)c2=O)cc1NCc1ccc(Cl)s1 [Compound 5, 4-[3-(5-{[(5-chlorothiophen-2-yl)methyl]amino}-1-(2,2-dimethylpropanoyl)-1H-pyrazol-3-yl)-2-oxo-1,2-dihydropyridin-1-yl]butanoic acid]
5.8 ng/mL	73 ng·h/mL			0.032 µM	94 ng/mL	180 ng·h/mL					CC(C)(N)Cn1cccc(-c2cc(NCc3ccc(Cl)s3)n(C(=O)c3ccoc3)n2)c1=O [Compound 9, 1-(2-amino-2-methylpropyl)-3-(5-{[(5-chlorothiophen-2-yl)methyl]amino}-1-(furan-3-carbonyl)-1H-pyrazol-3-yl)-1,2-dihydropyridin-2-one]
1200 ng/mL	2100 ng·h/mL	7400 ng/mL	3900 ng·h/mL		6100 ng/mL	3200 ng·h/mL					CCC(C)(C)C(=O)n1nc(-c2cccn(CCC(=O)O)c2=O)cc1NCc1ccc(Cl)s1 [Compound 11, 3-[3-(5-{[(5-chlorothiophen-2-yl)methyl]amino}-1-(2,2-dimethylbutanoyl)-1H-pyrazol-3-yl)-2-oxo-1,2-dihydropyridin-1-yl]propanoic acid]
150 ng/mL	140 ng·h/mL	6300 ng/mL	850 ng·h/mL		5600 ng/mL	760 ng·h/mL			700 ng/mL	1300 ng·h/mL	O=C(O)CCn1cccc(-c2cc(NCc3ccc(Cl)s3)[nH]n2)c1=O [Compound 2, 3-[3-(5-{[(5-chlorothiophen-2-yl)methyl]amino}-1H-pyrazol-3-yl)-2-oxo-1,2-dihydropyridin-1-yl]propanoic acid]
		4200 ng/mL	1000 ng·h/mL		4600 ng/mL	930 ng·h/mL	19 ng/mL	28 ng·h/mL			O=C(O)CCn1cccc(-c2cc(NCc3ccc(Cl)s3)n(C(=O)c3ccoc3)n2)c1=O [Compound 12, 3-[3-(5-{[(5-chlorothiophen-2-yl)methyl]amino}-1-(furan-3-carbonyl)-1H-pyrazol-3-yl)-2-oxo-1,2-dihydropyridin-1-yl]propanoic acid]
		9500 ng/mL	6200 ng·h/mL	15 µM	12000 ng/mL	2300 ng·h/mL	260 ng/mL	2300 ng·h/mL	1500 ng/mL	15000 ng·h/mL	CC(C)(C)C(=O)n1nc(-c2cccn(CC(=O)O)c2=O)cc1NCc1ccc(Cl)s1 [Compound 4, 2-[3-(5-{[(5-chlorothiophen-2-yl)methyl]amino}-1-(2,2-dimethylpropanoyl)-1H-pyrazol-3-yl)-2-oxo-1,2-dihydropyridin-1-yl]acetic acid]
		7200 ng/mL	2200 ng·h/mL								O=C(O)Cn1cccc(-c2cc(NCc3ccc(Cl)s3)[nH]n2)c1=O [Compound 3, 2-[3-(5-{[(5-chlorothiophen-2-yl)methyl]amino}-1H-pyrazol-3-yl)-2-oxo-1,2-dihydropyridin-1-yl]acetic acid]
